Results on one molecule are retold here after ChEMBL document CHEMBL6134930, “Discovery of AB801, a Potent and Selective Inhibitor of AXL Receptor Tyrosine Kinase for Use in Cancer Therapy” (J Med Chem, 2025).

Broadly, the IC50 is the midpoint of a concentration-inhibition curve. Usually half-life stands for the time in which the quantity being followed falls by half. The low end stands for fast loss, the high end for slow loss. Usually Tmax stands for the time at which the peak concentration occurs. The term Cmax denotes the highest concentration seen after dosing. For orientation: AUC(0-t) means the area under the concentration-time curve up to a stated or last time point. The low end stands for less exposure, the high end for more exposure.

For data set [1], the target named is T1, Tyrosine-protein kinase receptor UFO (Homo sapiens, UniProt P30530).
T1 sequence (P30530 whole entry): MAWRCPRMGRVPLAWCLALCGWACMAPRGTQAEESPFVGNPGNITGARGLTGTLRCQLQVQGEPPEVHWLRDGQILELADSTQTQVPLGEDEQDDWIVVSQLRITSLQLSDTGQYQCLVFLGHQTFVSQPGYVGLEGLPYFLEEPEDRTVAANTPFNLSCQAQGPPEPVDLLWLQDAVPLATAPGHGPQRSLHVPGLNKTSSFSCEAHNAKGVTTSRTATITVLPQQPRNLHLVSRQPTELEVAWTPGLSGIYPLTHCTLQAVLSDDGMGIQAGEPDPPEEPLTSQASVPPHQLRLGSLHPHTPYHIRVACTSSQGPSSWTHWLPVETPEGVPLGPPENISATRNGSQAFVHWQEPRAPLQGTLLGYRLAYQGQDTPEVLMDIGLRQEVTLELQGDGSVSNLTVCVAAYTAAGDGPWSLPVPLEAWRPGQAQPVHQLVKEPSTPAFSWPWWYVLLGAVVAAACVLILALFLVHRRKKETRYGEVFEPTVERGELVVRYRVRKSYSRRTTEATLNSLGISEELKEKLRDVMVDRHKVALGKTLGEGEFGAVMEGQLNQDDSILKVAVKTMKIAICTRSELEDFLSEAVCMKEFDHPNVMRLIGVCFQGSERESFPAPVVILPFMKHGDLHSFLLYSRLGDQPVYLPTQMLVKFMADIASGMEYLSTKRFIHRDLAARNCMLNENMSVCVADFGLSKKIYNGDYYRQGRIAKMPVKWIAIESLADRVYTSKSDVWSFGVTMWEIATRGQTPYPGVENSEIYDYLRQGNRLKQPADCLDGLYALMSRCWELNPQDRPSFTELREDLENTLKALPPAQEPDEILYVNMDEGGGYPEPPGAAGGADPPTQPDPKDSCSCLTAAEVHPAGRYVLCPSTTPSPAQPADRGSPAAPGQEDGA
The experiment in a line: Inhibition of human AXL measured after 150 mins by ATP-competitive HTRF based biochemical assay. For orientation: Time-resolved FRET reads energy transfer from a long-lived donor to a nearby acceptor.

Data set [2] in a line: Metabolic stability in rat hepatocytes assessed as intrinsic clearance measured per 10^6 cells. It counts as ADME, cell-based, Hepatocyte. Conditions: read-out: CLH.
Data set [3] concerns the target T1, Tyrosine-protein kinase receptor UFO. The experiment in a line: Inhibition of autophosphorylation AXL (unknown origin) expressed in HEK293 cells assessed as NanoLuc activity associated with phosphorylated proteins measured after 1 hr incubation by intracellular pAXL-ELISA. Type of data set: cell-based. Background: In an ELISA, binding on a coated surface is turned into a signal by an enzyme label.

In data set [4] the target is hERG (KCNH2) (Homo sapiens, UniProt Q12809). The experiment in a line: Inhibition of hERG at 10 uM by high throughput cell based patch clamp assay. It counts as toxicity.
Data set [5] addresses T2, CYP1A2 (Homo sapiens, UniProt P05177).
T2 sequence (P05177 whole entry): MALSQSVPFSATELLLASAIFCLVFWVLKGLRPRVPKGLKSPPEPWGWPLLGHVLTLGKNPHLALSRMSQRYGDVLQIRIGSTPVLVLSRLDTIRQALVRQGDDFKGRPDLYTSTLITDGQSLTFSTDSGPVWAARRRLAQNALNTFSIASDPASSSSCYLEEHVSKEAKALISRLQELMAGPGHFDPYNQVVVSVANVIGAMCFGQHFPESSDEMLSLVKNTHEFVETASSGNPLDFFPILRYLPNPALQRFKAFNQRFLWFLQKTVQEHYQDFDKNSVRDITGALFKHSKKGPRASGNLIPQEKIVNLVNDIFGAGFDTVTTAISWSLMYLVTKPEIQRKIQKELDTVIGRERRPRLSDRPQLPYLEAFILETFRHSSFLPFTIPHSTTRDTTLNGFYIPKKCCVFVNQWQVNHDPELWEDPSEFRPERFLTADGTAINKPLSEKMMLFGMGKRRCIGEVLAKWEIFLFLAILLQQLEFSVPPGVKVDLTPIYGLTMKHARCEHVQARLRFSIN
The experiment in a line: Time dependent inhibition of CYP1A2 (unknown origin) at 30 uM measured after 30 mins relative to control. Type of data set: ADME. The settings on record: read-out: TDI.

Data set [6] addresses T3, Cytochrome P450 2C8 (Homo sapiens, UniProt P10632).
T3 sequence (P10632 whole entry): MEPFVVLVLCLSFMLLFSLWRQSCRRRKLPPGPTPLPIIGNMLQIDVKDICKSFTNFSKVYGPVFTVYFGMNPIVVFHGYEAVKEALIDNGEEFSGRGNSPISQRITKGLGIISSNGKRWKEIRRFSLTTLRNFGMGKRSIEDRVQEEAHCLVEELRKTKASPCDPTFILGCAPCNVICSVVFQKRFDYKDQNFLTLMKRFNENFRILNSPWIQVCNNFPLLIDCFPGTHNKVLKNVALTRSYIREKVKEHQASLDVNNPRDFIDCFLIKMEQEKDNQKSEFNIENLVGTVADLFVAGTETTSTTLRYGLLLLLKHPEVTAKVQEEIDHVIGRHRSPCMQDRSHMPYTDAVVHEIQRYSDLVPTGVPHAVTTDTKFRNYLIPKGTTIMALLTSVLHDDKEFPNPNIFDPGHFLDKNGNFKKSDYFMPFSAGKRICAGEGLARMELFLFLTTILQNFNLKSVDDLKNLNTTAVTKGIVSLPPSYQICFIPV
The experiment in a line: Inhibition of CYP2C8 (unknown origin) measured after 30 mins. It counts as ADME.

In data set [7] the target is T4, Cytochrome P450 3A4 (Homo sapiens, UniProt P08684). Put plainly: Inhibition of CYP3A4 (unknown origin) using midazolam as substrate measured after 30 mins. Type of data set: ADME.
Data set [8] has as its target T4, Cytochrome P450 3A4. The experiment in a line: Inhibition of CYP3A4 (unknown origin) using testosterone as substrate measured after 30 mins. Type of data set: ADME.
The nature of data set [9]: Selectivity ratio, ratio of Ki for TYRO3 (unknown origin) to Ki for AXL (unknown origin).
Data set [10] deals with 786-0. Put plainly: Anti-tumor activity against human 786-0 cells xenografted in mouse model assessed as tumor growth inhibition at 10 mg/kg, po once daily for 15 days. Type of data set: functional, organism-based. The settings on record: time 15.0 day.
The test system of data set [11] is 786-0. The experiment in a line: Anti-tumor activity against human 786-0 cells xenografted in mouse model assessed as tumor growth inhibition at 30 mg/kg, po once daily for 15 days. Type of data set: functional, organism-based. Conditions: time 15.0 day. On the technique in general: A xenograft is tissue or cells of one species grown in another, often human tumour cells in immunodeficient mice.

The nature of data set [12]: Toxicity in mouse xenografted with human 786-0 cells assessed as body weight at 30 mg/kg, po once daily for 15 days. Type of data set: organism-based. Conditions: in vivo, 360 h, time 15 day.
Data set [13] in a line: Half life in human (healthy individuals) at 10 mg, single oral dose. Conditions: in vivo. It counts as ADME.
Data set [14] can be described thus: Tmax in human (healthy individuals) at 270 mg, single oral dose. It counts as ADME. Conditions: in vivo.
Data set [15] in a line: Cmax in human (healthy individuals) at 10 mg, single oral dose measured uo to 120 hrs. Type of data set: ADME. The settings on record: in vivo.
A short description of data set [16]: Cmax in human (healthy individuals) at 30 mg, single oral dose measured uo to 120 hrs. It counts as ADME. Conditions: in vivo.
Data set [17] can be described thus: Cmax in human (healthy individuals) at 270 mg, single oral dose measured uo to 120 hrs. It counts as ADME. The settings on record: in vivo.
The nature of data set [18]: AUC (0 to 24 hrs) in human (healthy individuals) at 270 mg, single oral dose. Type of data set: ADME. Conditions: in vivo.
Data set [19] in a line: AUC (0 to 120 hrs) in human (healthy individuals) at 90 mg, single oral dose. Type of data set: ADME. Conditions: in vivo.
Data set [20] in a line: AUC (0 to 120 hrs) in human (healthy individuals) at 270 mg, single oral dose. Type of data set: ADME. The settings on record: in vivo.

Activity calls are given as the source filed them. No cut-off for these calls is given here.

T4 sequence (P08684 whole entry): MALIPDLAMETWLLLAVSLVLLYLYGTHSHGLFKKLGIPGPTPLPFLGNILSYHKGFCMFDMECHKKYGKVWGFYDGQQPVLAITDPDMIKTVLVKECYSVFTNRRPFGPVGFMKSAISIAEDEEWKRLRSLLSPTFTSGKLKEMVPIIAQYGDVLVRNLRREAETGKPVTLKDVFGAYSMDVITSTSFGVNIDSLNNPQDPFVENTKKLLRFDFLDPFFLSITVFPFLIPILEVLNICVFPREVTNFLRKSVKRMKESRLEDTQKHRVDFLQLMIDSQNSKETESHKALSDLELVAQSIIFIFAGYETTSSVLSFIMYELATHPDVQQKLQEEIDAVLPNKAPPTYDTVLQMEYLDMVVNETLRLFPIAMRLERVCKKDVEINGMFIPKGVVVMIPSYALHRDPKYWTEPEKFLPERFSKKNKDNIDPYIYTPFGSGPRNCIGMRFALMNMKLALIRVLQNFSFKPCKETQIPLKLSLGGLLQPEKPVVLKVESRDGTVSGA
hERG (KCNH2), sequence (Q12809 whole entry): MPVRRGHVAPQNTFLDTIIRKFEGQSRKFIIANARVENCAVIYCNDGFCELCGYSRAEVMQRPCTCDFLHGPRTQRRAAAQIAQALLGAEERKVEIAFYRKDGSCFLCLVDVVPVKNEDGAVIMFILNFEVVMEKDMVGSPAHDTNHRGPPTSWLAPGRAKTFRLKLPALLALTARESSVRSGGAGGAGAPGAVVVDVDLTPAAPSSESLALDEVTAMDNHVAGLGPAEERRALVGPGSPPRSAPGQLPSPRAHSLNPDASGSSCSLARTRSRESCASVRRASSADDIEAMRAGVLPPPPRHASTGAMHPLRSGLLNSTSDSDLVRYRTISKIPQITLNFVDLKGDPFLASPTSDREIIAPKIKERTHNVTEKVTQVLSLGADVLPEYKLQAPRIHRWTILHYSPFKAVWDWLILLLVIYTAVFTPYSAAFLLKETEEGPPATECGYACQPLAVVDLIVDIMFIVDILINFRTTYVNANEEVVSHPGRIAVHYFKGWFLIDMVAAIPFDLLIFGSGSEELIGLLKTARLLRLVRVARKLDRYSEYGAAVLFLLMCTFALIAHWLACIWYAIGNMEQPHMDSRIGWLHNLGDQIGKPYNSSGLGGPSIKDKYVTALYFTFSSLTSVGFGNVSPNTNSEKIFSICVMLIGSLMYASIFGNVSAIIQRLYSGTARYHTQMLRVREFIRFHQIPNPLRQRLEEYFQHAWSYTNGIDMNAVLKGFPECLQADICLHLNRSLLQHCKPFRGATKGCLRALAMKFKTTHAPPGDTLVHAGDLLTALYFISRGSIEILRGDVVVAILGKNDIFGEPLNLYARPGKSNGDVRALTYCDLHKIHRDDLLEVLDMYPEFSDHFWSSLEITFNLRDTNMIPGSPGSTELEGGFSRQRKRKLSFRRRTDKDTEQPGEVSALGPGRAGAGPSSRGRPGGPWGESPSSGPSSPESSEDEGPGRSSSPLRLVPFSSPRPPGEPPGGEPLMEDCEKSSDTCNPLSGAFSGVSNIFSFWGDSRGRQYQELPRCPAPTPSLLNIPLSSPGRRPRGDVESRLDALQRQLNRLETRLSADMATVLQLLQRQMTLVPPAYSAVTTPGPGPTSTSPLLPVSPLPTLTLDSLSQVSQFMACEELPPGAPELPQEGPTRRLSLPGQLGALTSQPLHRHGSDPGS

In the case of `Cc1cccnc1-c1ccc(-c2n[nH]c3ncc(-c4ccc5c(c4)CC[C@@H](N4C6COCC4C6)CC5)cc23)nc1`, the IC50 in data set [1] amounted to 0.0018 µM; in [3], 0.069 µM; in [6] it was 17 µM; in data set [7] it was 17 µM; in data set [8], 5.6 µM. For the same molecule, in data set [2], the hepatocyte CLint was determined as 20 µL/min/1e6 cells. In [4], this molecule displayed an inhibition at 10 µM of 56%. Further, the inhibition at 0.5 h, 30 µM in [5] was found to be 0%. Further, the Ratio Ki in data set [9] is 1400. Also, the result in data set [10] and in data set [11] was inactive. The Activity entry in [12] was “Non-toxic”. Moreover, the half-life in data set [13] was 70 h. In [14], the Tmax was determined as 8 h. Further, the figures for the Cmax in data set [15], in [16] and in data set [17] were 3 ng/mL, 12 ng/mL and 153 ng/mL, respectively. The AUC(0-t) in data set [18] turned out to be 2580 ng·h/mL; in data set [19] it was 2090 ng·h/mL; in data set [20], 7490 ng·h/mL.
